Laboratory results reported in US7291618B2, “Therapeutic compounds” (Pfizer Inc, priority 2004, dated 2007).
pIC50: −log10 of the molar value.

What was measured:
[1] = biological target: T1, DPP-IV (Homo sapiens, UniProt P27487); assay: In vitro Assay for DPP-IV Inhibition; format: biochemical; details: read-out: IC50 against DPP-IV
T1 construct: purchased MP Biomedicals, Livermore, Calif
Method: 150 μL of an enzyme-substrate solution is pipetted into microtiter wells of a polystyrene 96-well plate, and maintained at 4° C. The enzyme-substrate solution comprises 50 μM Gly-Pro-4-methoxy-β-naphthylamide hydrochloride in 50 mM Tris assay buffer pH 7.3 containing 0.1M sodium chloride, 0.1% (v/v) Triton and 50 μU/mL DPP-IV (MP Biomedicals, Livermore, Calif.; DPP-IV 5 mU/mL stock). 5 μL per well of the compound of formula (I) is added, bringing the final concentrations of the formula (I) compound to between 3 μM and 10 nM per well.
Controls. Enzyme is omitted from four (4) wells, as a reagent blank. 5 μL of 3 mM Diprotin A (Bachem Bioscience, Inc.; King of Prussia, Pa.) is added to four wells as a positive quality control, providing a final Diprotin A concentration of 100 μM. To measure total enzyme activity (i.e., a negative control), without the influence of any compounds of formula (I), 5 μL of distilled water is added to four wells.
The entire assay is incubated overnight (between 14 and 18 hours) at 37° C. […]

[2] = Comparative Rat Pharmacokinetics Experiments (plasma concentrations over time after oral gavage); details: male, Sprague-Dawley, 5 mg/kg
[3] = rat, in vivo, po, 5 mg/kg

T1 sequence (P27487 whole entry, species assumed): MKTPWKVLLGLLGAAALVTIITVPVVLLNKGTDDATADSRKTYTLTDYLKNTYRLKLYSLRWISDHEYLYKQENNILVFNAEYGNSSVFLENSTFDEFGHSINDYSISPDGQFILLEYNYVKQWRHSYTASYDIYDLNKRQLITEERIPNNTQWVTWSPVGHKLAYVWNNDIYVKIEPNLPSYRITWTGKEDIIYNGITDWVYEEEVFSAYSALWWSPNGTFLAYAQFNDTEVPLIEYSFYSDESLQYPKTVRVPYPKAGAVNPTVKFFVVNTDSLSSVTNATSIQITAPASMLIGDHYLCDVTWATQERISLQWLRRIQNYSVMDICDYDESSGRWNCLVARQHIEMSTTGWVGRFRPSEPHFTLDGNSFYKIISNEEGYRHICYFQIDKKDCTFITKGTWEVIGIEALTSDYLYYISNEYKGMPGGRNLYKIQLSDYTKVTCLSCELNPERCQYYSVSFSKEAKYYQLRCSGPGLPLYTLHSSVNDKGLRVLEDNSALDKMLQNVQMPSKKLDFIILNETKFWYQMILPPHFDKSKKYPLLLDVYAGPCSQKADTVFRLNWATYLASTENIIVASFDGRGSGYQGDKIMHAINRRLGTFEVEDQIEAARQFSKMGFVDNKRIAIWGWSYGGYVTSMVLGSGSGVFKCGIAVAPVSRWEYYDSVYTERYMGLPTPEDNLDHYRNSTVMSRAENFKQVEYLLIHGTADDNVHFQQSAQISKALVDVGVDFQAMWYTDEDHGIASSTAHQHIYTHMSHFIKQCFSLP

pIC50 [1]	concentration at 0.25 h [2]	concentration at 0.5 h [2]	concentration at 0.75 h [2]	concentration at 1 h [2]	concentration at 2 h [2]	concentration at 4 h [2]	concentration at 6 h [2]	concentration at 8 h [2]	Compound	plasma concentrations achieved and maintained, compared with the comparator compound [3]
8.46									N#Cc1nccnc1N1CCN([C@@H]2CN[C@H](C(=O)N3C[C@@H](F)[C@@H](F)C3)C2)CC1 (relative stereo) [Example 10, ((2S,4S)-4-(4-(3-Cyanopyrazin-2-yl)piperazin-1-yl)pyrrolidin-2-yl)-((3R*,4S*)-3,4-difluoropyrrolidin-1-yl)-methanone]	
	1410 ng/mL	1320 ng/mL	979 ng/mL	768 ng/mL	289 ng/mL	97.8 ng/mL	49.3 ng/mL	32.8 ng/mL	O=C([C@@H]1C[C@H](N2CCN(c3ncccn3)CC2)CN1)N1CCC(F)(F)C1 [CPD 113, (3,3-Difluoropyrrolidin-1-yl)-((2S,4S)-4-(4-(pyrimidin-2-yl)piperazin-1-yl)pyrrolidin-2-yl)-methanone]	significantly higher plasma concentrations
